Measurements taken from PMC6240093, “Identification of Two Mannosyltransferases Contributing to Biosynthesis of the Fungal-type Galactomannan α-Core-Mannan Structure in Aspergillus fumigatus” (Scientific Reports, 2018).

Molecular target: T1, CmsA (Aspergillus fumigatus, UniProt B0Y2F5)
T1 construct: gene AFUB_051270; catalytic domain residues 27-397 (N-terminal TM removed)
Test: HPLC (UV300) of product with p-nitrophenyl alpha-D-mannopyranoside as acceptor
Assay type: biochemical
Details: donor 1.5 mM; p-nitrophenyl alpha-D-mannopyranoside 1.5 mM; 1.5 mM MnCl2; pH 7.0; 37 °C

T1 sequence (B0Y2F5 entry or part of it): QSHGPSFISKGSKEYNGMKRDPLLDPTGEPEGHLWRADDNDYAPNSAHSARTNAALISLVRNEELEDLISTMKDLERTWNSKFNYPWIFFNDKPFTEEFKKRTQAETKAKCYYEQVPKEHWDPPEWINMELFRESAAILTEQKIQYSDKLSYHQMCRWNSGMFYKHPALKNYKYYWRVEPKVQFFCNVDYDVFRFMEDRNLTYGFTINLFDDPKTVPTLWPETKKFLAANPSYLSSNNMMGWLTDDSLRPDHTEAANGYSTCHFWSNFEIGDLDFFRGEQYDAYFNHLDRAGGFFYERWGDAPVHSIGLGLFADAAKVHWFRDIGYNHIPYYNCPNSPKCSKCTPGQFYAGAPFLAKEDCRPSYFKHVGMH

SMILES: Nc1nc2c(ncn2[C@@H]2O[C@H](COP(=O)(O)OP(=O)(O)O[C@H]3O[C@H](CO)[C@@H](O)[C@H](O)[C@@H]3O)[C@@H](O)[C@H]2O)c(=O)[nH]1 [GDP-Man]
- HPLC (UV300) of product with p-nitrophenyl alpha-D-mannopyranoside as acceptor: CmsA has GDP-Man: α-mannoside α-1,2-mannosyltransferase activity in vitro
